Source: US20040143461A1, “Generating, viewing, interpreting, and utilizing a quantitative database of metabolites” (Lipomics Technologies, Inc., priority 2001, published 2004)
Read-outs that look alike come from different tables or passages of the source.

What was measured:
plasma lipids = experiment: Lipomic assessment of CL316,243-treated NZO mice (trial 2), targeting graph versus rosiglitazone; type: in vivo, mouse
Description: In a targeting display, quantitative metabolite data is compared from two samples that have been subjected to different treatments, for instance treatment with two different drugs or a drug and a test compound. The percentage or absolute changes (versus the standard sample) in the measured metabolites are plotted against each other on a Cartesian graph. This visual system facilitates the comparison of the global and individual metabolic effects of the two conditions being examined. If the two treatments (e.g., two drug treatments) affect the biological system in metabolically similar ways, the data points will fall along a line with a slope of 1, running through the origin (from the lower left to the upper right quadrant, in other words). Outlier data points, where one treatment or the other has a different effect on a metabolite, will lie in the upper left or lower right quadrants, and are therefore easily identified. […] The further off the “equivalent” slope a data point is, the greater the magnitude of differential effect that is being illustrated.
The metabolites found in the lower left and the upper right quadrants of the scatter plot (especially those where the X and Y values are similar) represent those likely affected by similar molecular mechanisms. […]

[1] = Body weight, glycemia, insulin and hepatic steatosis in rosiglitazone-treated (NZO×NON)F1 male mice; type: in vivo, mouse
liver lipid metabolome = conditions: treated mice
Method: (§1) Mouse tissue and plasma samples were a generous donation to Lipomics Technologies from Dr. Edward Leiter of the Jackson Laboratory (Bar Harbor, Me.). Samples included the plasma, heart, liver and inguinal adipose of mice treated with pharmaceuticals or their corresponding controls.
(§2) In both studies, five treated and five control mice were used. Following the treatments and the killing of the mice, tissues and plasma were taken, chilled to −80° C. and shipped to the analysis laboratory at Lipomics Technologies in a frozen state.
(§3) For the analysis of liver and heart tissues, 25 mg of tissue were placed in a ground glass homogenizer and internal standards were added. The internal standards for use in the analyses of these tissues may take many forms, but in this instance consisted of: 4.75 μg of N-pentadecenoyl-D-erythro-sphingosylphorylcholine; 74.78 μg of 1,2 diheptadecanoylphosphatidylcholine; 33.57 μg of 1,2-diheptadecenoylphosphatidylserine (for phosphatidylserine); 24.13 μg of 1,2-diheptadecenoylphosphatidylethanolamine; 13.38 μg of 1,1′,2,2′-tetraheptadecaenoyl cardiolipin (for cardiolipin); 1.12 μg of pentadecaenoic acid; 27.82 μg of triheptadecaenoic acid; 1.56 μg of cholesteryl heptadecanoate; and 27.70 μg of stigmasterol.
(§4) The solution mixture consisting of sample, fluid extractant, and internal standards was homogenized by twelve strokes with a ground-glass homogenizer. Following homogenization, 1.8 ml of 0.01 M potassium chloride was added, and the solution was vigorously mixed. The organic fraction containing the lipids and the internal standards was separated from the polar fraction of the mixture by centrifugation. The lipid extract was removed from the mixture and concentrated under a stream of nitrogen in preparation for lipid class separation.
(§5) The separation of lipid classes was performed by preparative thin-layer chromatography (TLC), essentially as previously described (Watkins et al., Lipids 36:247-254, 2001). To remove any residual metal or other damaging contaminants on the TLC plates, each plate was washed prior to use. Washing the plates is a three-step process that involves impregnating each plate with ethylenediamine tetraacetic acid (EDTA) and rinsing the plates once with methanol and once with chloroform. Each plate is first impregnated with 1 mM EDTA, pH 5.5, by ascending development using the method of Ruiz (J. Lipid Res. 38, 1482-1489, 1997). After each plate was completely developed, it was dried in air overnight. Once dry, each plate was developed in methanol, dried, and developed in chloroform in the same direction as the development with EDTA. The washed plates were then dried in air. Just prior to use, each plate was activated by heating to 110° C. for 10 minutes.
(§6) To prepare the TLC chamber for chromatography, Whatman (Clifton, N.J.) filter paper was cut into 20×80-cm strips and wrapped around the inside wall of a 30×60×10-cm glass development chamber. One hundred milliliters of the appropriate mobile phase was added to the chamber, and the chambers were sealed and allowed to equilibrate. Chambers were considered equilibrated when the solvent front had completely ascended the filter paper. The mobile phase employed for the separation of phospholipid classes (lyso-phospholipids, sphingomyelin, phosphatidylcholine, phosphatidylserine, phosphatidylethanolamine and cardiolipin) was a modification of the solvent system described by Holub and Skeaf (“Nutritional regulation of cellular phosphatidylinositol,” in Meth. Enzym., ed. Conn (Academic Press, Inc., Orlando), pp. 234-243, 1987) consisting of chloroform/methanol/acetic acid/water (100:67:7:4, by vol).
(§7) For the separation of neutral lipid classes (free fatty acids, free sterols, triacylglycerides and cholesterol esters), a solvent system consisting of petroleum ether/diethyl ether/acetic acid (80:20:1, by vol) was used (Mangold, Thin Layer Chromatography— A Laboratory Handbook (Springer-Verlag, New York), 1969).

heart lipid metabolome = test system: heart lipid metabolome
Method: as §1, §2, §3, §4, §5, §6, §7

[2] = humans; cited from earlier work
[3] = test system: inguinal adipose lipid metabolome
Method: as §1, §2
The lipids from plasma and tissues were extracted in the presence of authentic internal standards by the method of Folch et al. (J. Biol. Chem. 226, 497-509, 1957) by homogenization in a fluid extractant consisting of chloroform:methanol (2:1 vol:vol). Plasma (200 μl), or 10 mg inguinal adipose tissue was used for each analysis. For each sample, an appropriate mass of internal standard was added. The internal standard compounds chosen may take many forms, but in one specific example the internal standards added to each plasma sample were: 1.75 μg of heptadecanoic 1-heptadecanoyl-2-lyso-phosphatidycholine (for lysophospholipids), 2.25 micrograms of N-pentadecenoyl-D-erythro-sphingosylphorylcholine (for sphingomyelin), 39.93 micrograms of 1,2 diheptadecanoylphosphatidylcholine (for phosphatidylcholine), 0.93 micrograms of 1,2-diheptadecenoylphosphatidylethanolamine (for phosphatidylethanolamine), 2.09 micrograms of pentadecaenoic acid (for free fatty acids), 32.93 micrograms of triheptadecaenoic acid (for triacylglycerides), 27.27 micrograms of cholesteryl heptadecanoate (for cholesterol esters) and 38.03 micrograms of stigmasterol (for free sterols).
as §4, §5
To prepare the TLC chamber for chromatography, Whatman (Clifton, N.J.) filter paper was cut into 20×80-cm strips and wrapped around the inside wall of a 30×60×10-cm glass development chamber. One hundred milliliters of the appropriate mobile phase was added to the chamber, and the chambers were sealed and allowed to equilibrate. Chambers were considered equilibrated when the solvent front had completely ascended the filter paper.

[4] = amount in parentheses after the % greater
[5] = treated vs control mice, FIG. 5

SMILES: C[C@H](Cc1ccc2c(c1)OC(C(=O)[O-])(C(=O)[O-])O2)NC[C@H](O)c1cccc(Cl)c1.[Na+].[Na+] [CL316,243]
- similarity of effect on plasma lipids to rosiglitazone (plasma lipids; targeting graph FIG. 6, NZO mice, 0.001% in chow, four weeks): largely validated
- increase in the de novo synthesis of fatty acids (plasma lipids; targeting graph FIG. 6, upper left quadrant metabolites (16:1n7, 18:1n7, 20:3n9)): not induced

SMILES: CN(CCOc1ccc(CC2SC(=O)NC2=O)cc1)c1ccccn1 (stereo not drawn) [rosiglitazone]
- body weight ([1]; markedly-obese (NZO×NON)F1 male mice): increase in body weight
- hepatic steatosis ([1]; treated animals): severe hepatic steatosis
- liver sphingomyelin concentration (liver lipid metabolome; untreated 1,890 nmol/g): 1,180 nmol/g
- Total hepatic triacylglycerides (liver lipid metabolome; untreated 81,300 nmol/g): 150,400 nmol/g
- 14:0 fatty acid associated with heart sphingomyelin, more than the control sample (heart lipid metabolome; FIG. 5 heat map, test sample vs control sample): 80%
- Docosahexaenoic acid (22:6n3) in heart cardiolipin (heart lipid metabolome; treated mice, control 2,200 nmol/g): 950 nmol/g
- linoleic acid (18:2n6) in heart cardiolipin (heart lipid metabolome; treated mice, control 4,550 nmol/g): 8,850 nmol/g
- mean cardiolipin content of hearts (heart lipid metabolome; treated mice, untreated 2,500 nmol/g): 3,000 nmol/g
- average concentration of total free fatty acids in the heart (heart lipid metabolome; treated mice, untreated 5,100 nmol/g): 2,500 nmol/g
- heart free fatty acids of the saturated n-3, n-6, and n-9 families, lower than in untreated mice (heart lipid metabolome; treated vs untreated mice, FIG. 7): approximately 50%
- weight gain [2]: often accompanied by weight gain
- docosahexaenoic acid in inguinal fat triacylglycerides, greater concentration than control [3, 4]: 7,000 nmol/g
- eicosapentaenoic acid in inguinal fat triacylglycerides, greater concentration than control [3, 4]: 4,100 nmol/g
- a-linolenic acid in inguinal fat triacylglycerides, more than control ([3]; amount in parentheses after the % more): 24,300 nmol/g
- concentration of total n-3 fatty acids in the inguinal fat triacylglycerides ([3]; treated mice): 71,260 nmol/g
- inguinal fat triacylglyceride content ([3]; treated mice): 9,628 μmol/g
- inguinal fat free fatty acids ([3]; treated mice, controls 9,900 nmol/g): 13,370 nmol/g
- concentration of n-7 fatty acids in inguinal fat triacylglycerides ([3]; treated mice, untreated 204 μmol/g): 303 µmol/g
- inguinal fat free fatty acids, more than controls ([3]; treated vs control mice): 35%
- inguinal fat triacylglyceride content, lower than controls ([3]; treated vs control mice): 5.7%
- a-linolenic acid in inguinal fat triacylglycerides, more than control [3, 5]: 84%
- docosahexaenoic acid in inguinal fat triacylglycerides, greater concentration than control [3, 5]: 612%
- eicosapentaenoic acid in inguinal fat triacylglycerides, greater concentration than control [3, 5]: 522%
- total concentration of n-6 fatty acids in inguinal fat, higher than untreated ([3]; treated vs untreated mice): less than 3%
- total n-3 fatty acids in inguinal fat triacylglycerides, greater than in untreated mice ([3]; treated vs untreated mice): 120%
